This is an account of results in patent US6407109B1, “Pyrrolyl tetrahydroquinoxalin diones, their production and use in the treatment of diseases” (Abbott Laboratories, priority 1995, dated 2002).

What is called melting point is the temperature, or range, at which the solid turns liquid. The term Ki denotes the dissociation constant of the complex between target and ligand, obtained from inhibition or displacement.

In one data set the test system is AMPA receptor. In words: Binding of 3H-AMPA to rat cerebral membrane material. The method, then:
The pharmacological activity of the compounds I was investigated on isolated membrane material from rat cerebra. For this purpose, the membrane material was treated in the presence of the compounds according to the invention with the radiolabeled substance ^3H-2-amino-3-hydroxy-5-methyl-4-isoxazolepropionic acid (^3H-AMPA), [^3H]-glycine or [^3H]-kainate which bind to specific receptors (AMPA, NMDA or kainate receptors). The radioactivity of the treated membranes was then measured by scintillation counting. It was possible to determine from the bound radioactivity the amounts of bound ^3H-AMPA, [^3H]-glycine or [^3H]-kainate, or in each case the displaced amounts of these radiolabeled substances. […]
To prepare the membrane material, freshly removed rat cerebra were homogenized together with 15 times the volume of a buffer solution A composed of 30 mM tris(hydroxymethyl)methylamine hydrochloride (TRIS-HCl) and 0.5 mM ethylenediaminetetraacetic acid (EDTA), pH 7.4, using an Ultra-Turrax^R. The suspension was centrifuged at 48000 g for 20 min. […] After measurement of the radioactivity of the bound ^3H-AMPA in the membrane material by scintillation counting, the KI was determined by regression analysis of the displacement plots.

In the case of `CCOC(=O)Cn1c(=O)c(=O)[nH]c2cc([N+](=O)[O-])c(-n3ccc(C(=O)NCc4ccc([N+](=O)[O-])cc4)c3)cc21`, the melting point was > 300 °C.

In the case of `O=C(O)Cn1c(=O)c(=O)[nH]c2cc([N+](=O)[O-])c(-n3ccc(C(=O)NCc4ccc([N+](=O)[O-])cc4)c3)cc21`, the melting point was > 210 °C (dec.).

As for `CCOC(=O)Cn1c(=O)c(=O)[nH]c2cc([N+](=O)[O-])c(-n3ccc(C(=O)O)c3)cc21` [Example 2, 7-(3-Carboxy-1-pyrrolyl)-1-(ethoxycarbonylmethyl)-6-nitroquin-oxaline-2,3(1H,4H)-dione], the “activity in 3H-AMPA binding relative to the closely related aldehyde (Example 80 in EP 572 852)” value in the data set with AMPA receptor (compared with 1-(ethoxycarbonylmethyl)-7-(3-formyl-1-pyrrolyl)-6-nitroquinoxaline-2,3(1H,4H)-dione) is reported as “distinctly more active”. In addition, the Ki on AMPA receptor (isolated membrane material from rat cerebra, 3H-AMPA, incubated on ice for 60 min, read-out: kI (dissociation constant, displacement of 3H-AMPA)) was < 10 µM.

In turn, `CCOC(=O)Cn1c(=O)c(=O)[nH]c2ccc3ccc(-n4ccc(C(=O)O)c4)cc3c21` [Example 3, 9-(3-Carboxy-1-pyrrolyl)-1-(ethoxycarbonylmethyl)benzo[f]-quinoxaline-2,3(1H,4H)-dione] yielded a melting point of 292 to 295 °C.

For the compound `CCOC(=O)Cn1c(=O)c(=O)[nH]c2cc([N+](=O)[O-])c(-n3ccc(C(=O)NCc4ccccc4)c3)cc21` [Example 8, 7-(3-Benzylcarbamoyl-1-pyrrolyl)-1-ethoxycarbonylmethyl-6-nitro-quinoxaline-2,3(1H,4H)-dione], the melting point was 223 °C (dec.).

Take `CCOC(=O)Cn1c(=O)c(=O)[nH]c2cc([N+](=O)[O-])c(-n3ccc(C(=O)NCc4ccncc4)c3)cc21` [Example 11, 1-Ethoxycarbonylmethyl-6-nitro-7-(3-(4-pyridinylmethylcarbamoyl)-1-pyrrolyl)quinoxaline-2,3(1H,4H)-dione]: the melting point is > 300 °C.

For the compound `O=C(O)Cn1c(=O)c(=O)[nH]c2ccc3c(-n4ccc(C(=O)O)c4)cccc3c21` [Example 15, 1-Carboxymethyl-7-(3-carboxy-1-pyrrolyl)benzo[f]quinoxaline-2,3(1H, 4H)-dione], the melting point was > 300 °C.

For the compound `O=C(O)Cn1c(=O)c(=O)[nH]c2cc([N+](=O)[O-])c(-n3ccc(C(=O)N4CCN(CCc5ccccc5)CC4)c3)cc21` [Example 20, 1-Carboxymethyl-6-nitro-7-(3-(4-(2-phenylethyl)-1-piperazinyl-carbonyl)-1-pyrrolyl)quinoxaline-2,3(1H, 4H)-dione], the melting point is > 250 °C (dec.).

In the case of `O=C(O)Cn1c(=O)c(=O)[nH]c2cc([N+](=O)[O-])c(-n3ccc(C(=O)NCCCc4ccccc4)c3)cc21` [Example 21, 1-Carboxymethyl-6-nitro-7-(3-(3-phenylpropylcarbamoyl)-1-pyrrolyl)quinoxaline-2,3(1H,4H)-dione], the melting point was 224 to 227 °C (dec.).

Turning to `O=C(O)Cn1c(=O)c(=O)[nH]c2cc([N+](=O)[O-])c(-n3ccc(C(=O)NCc4ccncc4)c3)cc21` [Example 22, 1-Carboxymethyl-6-nitro-7-(3-(4-pyridinylmethylcarbamoyl)-1-pyrrolyl)quinoxaline-2,3(1H,4H)-dione], the melting point was > 300 °C.
